Compound in the assay “CUDC-101 + Bortezomib”: C#Cc1cccc(Nc2ncnc3cc(OC)c(OCCCCCCC(=O)NO)cc23)c1 [CUDC-101] + CC(C)C[C@H](NC(=O)[C@H](Cc1ccccc1)NC(=O)c1cnccn1)B(O)O [Bortezomib] (partner 0.002 µM)
The experiment in a line: relative viability (nuclei count vs DMSO), 5 days (fraction); higher = more cells survive. A digest of the protocol:
(§1)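 After 5 days of treatment, lung cancer cells in 1536-well plates were fixed and stained in a single step (final 0.05% Triton X-100, 1% formaldehyde, 1 ug/ml Hoechst) and their nuclei counted on 4× images. Treatment had been applied by pin tool the day after seeding as one drug alone or as a fixed anchor-drug dose with five library-drug doses (not always all listed) in √10 steps. Relative viability is the nuclei count of treated wells divided by that of vehicle wells, and values are medians of duplicate plates.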

Compound in the assay “NVP-TAE684 + Pictilisib”: COc1cc(N2CCC(N3CCN(C)CC3)CC2)ccc1Nc1ncc(Cl)c(Nc2ccccc2S(=O)(=O)C(C)C)n1 [NVP-TAE684] + CS(=O)(=O)N1CCN(Cc2cc3nc(-c4cccc5[nH]ncc45)nc(N4CCOCC4)c3s2)CC1 [Pictilisib] (partner 1 µM)
The assay is described as above. In outline:
as §1

Regarding PC-3 [JPC-3], the relative viability worked out at 0.885 with CUDC-101 + Bortezomib (first compound 0.01 µM); 0.927 in the assay with CUDC-101 + Bortezomib (first compound 0.03162 µM); 0.779 with CUDC-101 + Bortezomib (first compound 0.1 µM); 0.642 with CUDC-101 + Bortezomib (first compound 0.3162 µM); 0.629 with CUDC-101 + Bortezomib (first compound 1 µM); 0.697 with NVP-TAE684 + Pictilisib (first compound 0.2 µM). Moreover, the relative viability with NVP-TAE684 + Pictilisib (first compound 0.6325 µM) turned out to be 0.684; with NVP-TAE684 + Pictilisib (first compound 2 µM), 0.65.
For the cell line NCI-H1993, the relative viability in the assay with CUDC-101 + Bortezomib (first compound 0.01 µM) worked out at 1.19; with CUDC-101 + Bortezomib (first compound 0.03162 µM), 1.12; in the assay with CUDC-101 + Bortezomib (first compound 0.1 µM), 0.782; with CUDC-101 + Bortezomib (first compound 0.3162 µM), 0.995; in the assay with CUDC-101 + Bortezomib (first compound 1 µM), 0.611; with NVP-TAE684 + Pictilisib (first compound 0.6325 µM), 0.781. Also, in the assay with NVP-TAE684 + Pictilisib (first compound 2 µM), the relative viability was found to be 0.832.
Regarding NCI-H1355, the relative viability amounted to 1.31 with CUDC-101 + Bortezomib (first compound 0.01 µM); 1.17 with CUDC-101 + Bortezomib (first compound 0.03162 µM); 1.24 with CUDC-101 + Bortezomib (first compound 0.1 µM); 1.18 in the assay with CUDC-101 + Bortezomib (first compound 0.3162 µM); 1.03 with CUDC-101 + Bortezomib (first compound 1 µM); 0.467 with NVP-TAE684 + Pictilisib (first compound 0.2 µM). Further, the relative viability with NVP-TAE684 + Pictilisib (first compound 0.6325 µM) came out at 0.323; in the assay with NVP-TAE684 + Pictilisib (first compound 2 µM) it was 0.343.
For the cell line A549, the relative viability with NVP-TAE684 + Pictilisib (first compound 0.2 µM) worked out at 0.534; in the assay with NVP-TAE684 + Pictilisib (first compound 0.6325 µM), 0.407; in the assay with NVP-TAE684 + Pictilisib (first compound 2 µM) it was 0.108.
For NCI-H23, the relative viability in the assay with CUDC-101 + Bortezomib (first compound 0.01 µM) was 0.922; with CUDC-101 + Bortezomib (first compound 0.03162 µM), 0.935; with CUDC-101 + Bortezomib (first compound 0.1 µM), 1.18; with CUDC-101 + Bortezomib (first compound 0.3162 µM) it was 1.13; with CUDC-101 + Bortezomib (first compound 1 µM), 0.955; in the assay with NVP-TAE684 + Pictilisib (first compound 0.2 µM), 0.518. Further, the relative viability with NVP-TAE684 + Pictilisib (first compound 0.6325 µM) came out at 0.422; with NVP-TAE684 + Pictilisib (first compound 2 µM) it was 0.377.
For the cell line CAL-12T, the relative viability was determined as 1.04 in the assay with CUDC-101 + Bortezomib (first compound 0.01 µM); 1.18 with CUDC-101 + Bortezomib (first compound 0.03162 µM); 0.983 with CUDC-101 + Bortezomib (first compound 0.1 µM); 0.926 with CUDC-101 + Bortezomib (first compound 0.3162 µM); 0.741 in the assay with CUDC-101 + Bortezomib (first compound 1 µM); 0.36 in the assay with NVP-TAE684 + Pictilisib (first compound 0.2 µM). Moreover, the relative viability with NVP-TAE684 + Pictilisib (first compound 0.6325 µM) is 0.245; with NVP-TAE684 + Pictilisib (first compound 2 µM), 0.305.
For ABC-1, the relative viability with CUDC-101 + Bortezomib (first compound 0.01 µM) is 0.243; with CUDC-101 + Bortezomib (first compound 0.03162 µM), 0.247; with CUDC-101 + Bortezomib (first compound 0.1 µM), 0.269; with CUDC-101 + Bortezomib (first compound 0.3162 µM), 0.24; in the assay with CUDC-101 + Bortezomib (first compound 1 µM), 0.18; with NVP-TAE684 + Pictilisib (first compound 0.2 µM), 0.546. In addition, the relative viability amounted to 0.493 in the assay with NVP-TAE684 + Pictilisib (first compound 0.6325 µM) and 0.298 with NVP-TAE684 + Pictilisib (first compound 2 µM).
In the case of HCC-44, the relative viability in the assay with CUDC-101 + Bortezomib (first compound 0.01 µM) was determined as 0.798; in the assay with CUDC-101 + Bortezomib (first compound 0.03162 µM), 1.05; with CUDC-101 + Bortezomib (first compound 0.1 µM), 0.829; with CUDC-101 + Bortezomib (first compound 0.3162 µM) it was 0.999; with CUDC-101 + Bortezomib (first compound 1 µM), 0.88; in the assay with NVP-TAE684 + Pictilisib (first compound 0.2 µM), 0.658. Further, the relative viability with NVP-TAE684 + Pictilisib (first compound 0.6325 µM) turned out to be 0.602; with NVP-TAE684 + Pictilisib (first compound 2 µM), 0.412.
On to NCI-H1755, for which the relative viability in the assay with CUDC-101 + Bortezomib (first compound 0.01 µM) was determined as 0.985; with CUDC-101 + Bortezomib (first compound 0.03162 µM) it was 1.06; with CUDC-101 + Bortezomib (first compound 0.1 µM) it was 0.88; with CUDC-101 + Bortezomib (first compound 0.3162 µM) it was 0.933; with CUDC-101 + Bortezomib (first compound 1 µM), 0.79; with NVP-TAE684 + Pictilisib (first compound 0.2 µM) it was 0.5. Further, the relative viability with NVP-TAE684 + Pictilisib (first compound 0.6325 µM) was determined as 0.414; with NVP-TAE684 + Pictilisib (first compound 2 µM), 0.408.
Take SK-LU-1: the relative viability was found to be 1.55 in the assay with CUDC-101 + Bortezomib (first compound 0.01 µM); 1.03 in the assay with CUDC-101 + Bortezomib (first compound 0.03162 µM); 1.48 with CUDC-101 + Bortezomib (first compound 0.1 µM); 0.829 with CUDC-101 + Bortezomib (first compound 0.3162 µM); 0.976 with CUDC-101 + Bortezomib (first compound 1 µM); 0.501 with NVP-TAE684 + Pictilisib (first compound 0.2 µM). Moreover, the relative viability turned out to be 0.524 with NVP-TAE684 + Pictilisib (first compound 0.6325 µM) and 0.444 with NVP-TAE684 + Pictilisib (first compound 2 µM).
With NCI-H2126, the relative viability stood at 1.12 in the assay with CUDC-101 + Bortezomib (first compound 0.01 µM); 1.14 with CUDC-101 + Bortezomib (first compound 0.03162 µM); 1.1 with CUDC-101 + Bortezomib (first compound 0.1 µM); 1.08 with CUDC-101 + Bortezomib (first compound 0.3162 µM); 1.01 with CUDC-101 + Bortezomib (first compound 1 µM); 0.491 with NVP-TAE684 + Pictilisib (first compound 0.2 µM). The values for the relative viability in the assay with NVP-TAE684 + Pictilisib (first compound 0.6325 µM) and with NVP-TAE684 + Pictilisib (first compound 2 µM) were 0.501 and 0.428, respectively.
For the cell line NCI-H650, the relative viability in the assay with CUDC-101 + Bortezomib (first compound 0.01 µM) turned out to be 0.834; with CUDC-101 + Bortezomib (first compound 0.03162 µM) it was 0.917; with CUDC-101 + Bortezomib (first compound 0.1 µM), 0.87; with CUDC-101 + Bortezomib (first compound 0.3162 µM), 0.459; with CUDC-101 + Bortezomib (first compound 1 µM), 0.643; with NVP-TAE684 + Pictilisib (first compound 0.2 µM), 0.789. The relative viability in the assay with NVP-TAE684 + Pictilisib (first compound 0.6325 µM) was determined as 0.69; in the assay with NVP-TAE684 + Pictilisib (first compound 2 µM) it was 0.497.
In the case of 201T, the relative viability in the assay with CUDC-101 + Bortezomib (first compound 0.01 µM) came out at 1.08; with CUDC-101 + Bortezomib (first compound 0.03162 µM), 1.06; with CUDC-101 + Bortezomib (first compound 0.1 µM), 1.09; with CUDC-101 + Bortezomib (first compound 0.3162 µM), 1.11; with CUDC-101 + Bortezomib (first compound 1 µM) it was 1.08; with NVP-TAE684 + Pictilisib (first compound 0.2 µM), 0.699. Also, the relative viability came to 0.676 with NVP-TAE684 + Pictilisib (first compound 0.6325 µM) and 0.652 with NVP-TAE684 + Pictilisib (first compound 2 µM).
As to LU99A, the relative viability with CUDC-101 + Bortezomib (first compound 0.01 µM) amounted to 1.36; in the assay with CUDC-101 + Bortezomib (first compound 0.03162 µM) it was 1.14; with CUDC-101 + Bortezomib (first compound 0.1 µM), 1.04; with CUDC-101 + Bortezomib (first compound 0.3162 µM) it was 0.998; in the assay with CUDC-101 + Bortezomib (first compound 1 µM), 0.635; with NVP-TAE684 + Pictilisib (first compound 0.2 µM) it was 0.288. The relative viability with NVP-TAE684 + Pictilisib (first compound 0.6325 µM) turned out to be 0.362; with NVP-TAE684 + Pictilisib (first compound 2 µM), 0.249.
On to NCI-H647, for which the relative viability in the assay with CUDC-101 + Bortezomib (first compound 0.01 µM) came to 1.08; with CUDC-101 + Bortezomib (first compound 0.03162 µM) it was 0.948; with CUDC-101 + Bortezomib (first compound 0.1 µM), 0.871; with CUDC-101 + Bortezomib (first compound 0.3162 µM), 0.724; with CUDC-101 + Bortezomib (first compound 1 µM), 0.119; in the assay with NVP-TAE684 + Pictilisib (first compound 0.2 µM) it was 0.429. Also, the values for the relative viability in the assay with NVP-TAE684 + Pictilisib (first compound 0.6325 µM) and with NVP-TAE684 + Pictilisib (first compound 2 µM) were 0.381 and 0.473, respectively.
As to LC-2-ad, the relative viability was found to be 1.09 with CUDC-101 + Bortezomib (first compound 0.01 µM); 1.06 with CUDC-101 + Bortezomib (first compound 0.03162 µM); 1.08 in the assay with CUDC-101 + Bortezomib (first compound 0.1 µM); 1.26 with CUDC-101 + Bortezomib (first compound 0.3162 µM); 0.822 with CUDC-101 + Bortezomib (first compound 1 µM); 0.333 in the assay with NVP-TAE684 + Pictilisib (first compound 0.2 µM). Besides, the relative viability was found to be 0.578 with NVP-TAE684 + Pictilisib (first compound 0.6325 µM) and 0.344 in the assay with NVP-TAE684 + Pictilisib (first compound 2 µM).
For the cell line LK-2, the relative viability in the assay with NVP-TAE684 + Pictilisib (first compound 0.2 µM) was found to be 0.649; with NVP-TAE684 + Pictilisib (first compound 0.6325 µM), 0.472; in the assay with NVP-TAE684 + Pictilisib (first compound 2 µM), 0.343.
With NCI-H520, the relative viability with CUDC-101 + Bortezomib (first compound 0.01 µM) turned out to be 0.761; with CUDC-101 + Bortezomib (first compound 0.1 µM), 0.253; with CUDC-101 + Bortezomib (first compound 0.3162 µM), 0.252; with CUDC-101 + Bortezomib (first compound 1 µM) it was 0.116; with NVP-TAE684 + Pictilisib (first compound 0.2 µM) it was 0.337; with NVP-TAE684 + Pictilisib (first compound 0.6325 µM), 0.3. The relative viability with NVP-TAE684 + Pictilisib (first compound 2 µM) came to 0.228.
NCI-H1975: the relative viability with CUDC-101 + Bortezomib (first compound 0.01 µM) worked out at 0.418; in the assay with CUDC-101 + Bortezomib (first compound 0.03162 µM), 0.361; with CUDC-101 + Bortezomib (first compound 0.1 µM), 0.427; in the assay with CUDC-101 + Bortezomib (first compound 0.3162 µM), 0.362; with CUDC-101 + Bortezomib (first compound 1 µM), 0.165; with NVP-TAE684 + Pictilisib (first compound 0.2 µM) it was 0.281. Also, the values for the relative viability in the assay with NVP-TAE684 + Pictilisib (first compound 0.6325 µM) and with NVP-TAE684 + Pictilisib (first compound 2 µM) were 0.231 and 0.191, respectively.

Source of the values: the supplement of paper PMC10307832.
